US8709745B2, “Methods for isolating ligands of the human bitter taste receptor TAS2R49” (Deutsches Institut für Ernährungsforschung Potsdam-Rehbrücke, priority 2009, dated 2014)
“Also recorded” adds a separate entry of the source. Counter-ions that a name gives are not always drawn.

Tests used:
[1] = vendor property list; cited from earlier work
[2] = molecular target: T1, TAS2R49 human bitter taste receptor (Homo sapiens, UniProt P59543, K79E); experiment: FLIPR calcium assay in HEK-293T Gα16gust44 cells transiently transfected with SST-hTAS2R49-HSV; format: cell-based; conditions: for activation of hTAS2R49 (calcium response): hTAS2R49 transfected vs mock transfected cells
T1 construct: first 45 amino acids of rat somatostatin receptor type 3 (SST), membrane-targeting signal (N); expressed in transfected cells; host or cells: HEK-293T cells stably expressing the chimeric G-protein alpha subunit Gα16gust44; vector pcDNA5/FRT
T1 sequence (P59543 1-309 K79E): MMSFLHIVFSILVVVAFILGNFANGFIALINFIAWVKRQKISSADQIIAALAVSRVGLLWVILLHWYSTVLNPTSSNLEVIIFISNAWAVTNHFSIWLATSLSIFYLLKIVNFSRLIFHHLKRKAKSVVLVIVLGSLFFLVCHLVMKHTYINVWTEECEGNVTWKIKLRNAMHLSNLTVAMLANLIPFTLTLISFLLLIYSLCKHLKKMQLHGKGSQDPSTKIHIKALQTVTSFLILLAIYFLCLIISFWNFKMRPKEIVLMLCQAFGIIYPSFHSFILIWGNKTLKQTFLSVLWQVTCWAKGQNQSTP
Description: The TAS2R49 human bitter taste receptor was functional expressed in a heterologouse cell system. Therefore, the coding region for this hTAS2R was cloned into a vector (pcDNA5/FRT, Invitrogen, San Diego, Calif.). The construct includes the sequence for the first 45 amino acids of a rat somatostatin receptor type 3 (SST) coupled to the N-terminal end of the receptor for an improvement of receptor membrane targeting. At the C-terminus of the bitter taste receptor a herpes simplex virus glycoprotein D (HSV) epitope was added for immunocytochemical detection. The SST-hTAS2R49-HSV pcDNA5/FRT plasmid construct was transiently transfected into HEK-293T cells stably expressing the chimeric G-protein a subunit Gal6gust44. An empty pcDNA5/FRT plasmid /vector were used as negative control. The cells were seeded into 96-well plates (Greiner Bio-One, Frickenhausen, Germany) under conventional cell culture conditions (Dulbecco's Modified Eagle Medium (DMEM)/10% FCS/1% penicillin/streptomycin; 37° C., 5% CO2, 95% humidity) and 24-26 h later transfected with 150 ng plasmid DNA and 300 ng Lipofectamine 2000 (Invitrogen, San Diego, Calif.). 24-26 h later the cells were loaded with the calcium sensitive dye Fluo4-acetoxymethyl (Molecular Probes, Karlsruhe, Germany) with a final concentration of 20 μM in serum-free DMEM medium. The organic anion-transport inhibitor probenecid (Sigma Aldrich, München, Germany) was added to the dye/medium solution to reduce leakage of the indicator after cleavage of the ester bonds. 1 h after loading, the well plates were washed 3 times with 30 min incubation between the last second wash steps (protected from light) by Denley cell washer (Thermo Fisher Scientific Inc., Waltham, Mass.). The washing solution contains 130 mM NaCl, 5 mM KCl, 10 mM HEPES with pH 7.4, 2 mM CaCl2, and 10 mM Glucose. The agonist was solved and diluted in wash solution.
The elevation of the cytosolic calcium concentration was measured after application of the test substances using the Fluorometric Imaging Plate Reader (FLIPR, Molecular Devices, Munich, Germany) at […]. The vitality of the cells was verified by a second application of 100 nM somatostatin-14, an agonist of the endogenous […] somatostatin receptor type 2. To exclude unspecific responses and false positive signals, mock transfected cells were always measured on the same plate with the same compound concentration each. All experiments were performed at least twice. For the calculation of the dose-response function, the signals of the wells with the same concentration of the agonist were automatically normalized with the control wells (mock transfection, Fmock) by FLIPR384® software (Molecular Devices, Munich, Germany). To consider the dye loading efficiency and the cell number the background fluorescence was measured for each plate/each well and denoted as signal test. […] The calculation of the EC50 values were prepared in SigmaPlot 9.0 by nonlinear regression to the function f(x)=100/[1+(EC50/x)nH], where x is the agonist concentration and nH is the Hill coefficient.

[3] = averaged dose response curve (n=5), FIG. 1

Compound: O=C(O)c1cc(=O)c2c(OCC(O)COc3cccc4oc(C(=O)O)cc(=O)c34)cccc2o1 [Cromolyn sodium, disodium salt of 5,5′-[(2-hydroxytrimethylene)dioxy]bis[4-oxo-4H-1-benzopyran-2-carboxylate]]
- water solubility [1]: water-soluble

Compound: O=C(O)c1cc(=O)c2c(OCC(O)COc3cccc4oc(C(=O)O)cc(=O)c34)cccc2o1 [cromolyn]
- EC50 [2, 3]: 42 ± 13 µM
- threshold [2, 3]: ~0.01 mM
- activation of hTAS2R49 (calcium response) [2]: responded robustly; also recorded: effective agonist of hTAS2R49

Compound: OC(CCCN1CCCCC1)(c1ccccc1)c1ccccc1 [diphenidol]
- activation of hTAS2R49 (calcium response) [2]: activated the receptor
- activation of hTAS2R49 (calcium response) ([2]; listed as Diphenidol): agonist for hTAS2R49
